The record followed here is patent US7151104B2, “Pyrazolopyridines as cyclin dependent kinase inhibitors” (Schering Corporation, priority 2002, dated 2006).

Structures are written as SMILES.

In this test the target is T1, Cyclin E/CDK2 (Homo sapiens, UniProt P24941).
T1 construct: The expressed protein was approximately 34 kDa in size; made in house; host or cells: SF9 insect cells (baculovirus co-infection)
The experiment in a line: Cyclin E/CDK2 in vitro kinase assay (SPA, 33P-ATP, biotinylated Histone H1 peptide). It is filed as biochemical. Particulars: recombinant cyclin E/CDK2 from SF9 cells; 8 point serial dilutions in duplicate; 1 hour at room temperature.

By IC50 is commonly meant the point on the concentration scale where inhibition reaches its midpoint.

For the molecule `Clc1cnn2c(NCc3cncnc3)cc(-c3ccccc3)cc12`, the half-inhibitory concentration (IC50) is 78 nM.
